Drawing on patent US12275731B2, “Azaindole inhibitors of wild-type and mutant forms of LRRK2” (DANA-FARBER CANCER INSTITUTE, INC., priority 2018, dated 2025), this text covers remaining binding for three compounds.

Common to all, as to assay: KinomeScan profiling
What all share (assay type): binding

The target of one experiment is T1, JNK3 (Homo sapiens, UniProt P53779).
T1 construct: purchased KinomeScan®
Particulars: JNK3, 1 μM; read-out: % control. An outline of the steps:
(§1)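 Selectivity was assessed by binding competition at 1 μM against 468 kinases. Values below 35% of control define an interaction.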

The target in the next experiment is T2, TSSK3 (Homo sapiens, UniProt Q96PN8).
T2 sequence (Q96PN8 1-268): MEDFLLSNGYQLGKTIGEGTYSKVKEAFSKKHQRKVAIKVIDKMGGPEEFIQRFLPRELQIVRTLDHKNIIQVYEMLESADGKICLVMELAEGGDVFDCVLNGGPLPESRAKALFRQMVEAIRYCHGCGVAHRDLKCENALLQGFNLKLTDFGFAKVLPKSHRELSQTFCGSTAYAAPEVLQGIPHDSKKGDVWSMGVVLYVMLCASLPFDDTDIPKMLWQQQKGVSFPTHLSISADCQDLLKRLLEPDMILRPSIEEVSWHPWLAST
Particulars: TSSK3, 1 μM; read-out: % control. An outline of the steps: as §1

In another experiment the target is T3, RIPK4 (Homo sapiens, UniProt P57078).
T3 sequence (P57078 1-832): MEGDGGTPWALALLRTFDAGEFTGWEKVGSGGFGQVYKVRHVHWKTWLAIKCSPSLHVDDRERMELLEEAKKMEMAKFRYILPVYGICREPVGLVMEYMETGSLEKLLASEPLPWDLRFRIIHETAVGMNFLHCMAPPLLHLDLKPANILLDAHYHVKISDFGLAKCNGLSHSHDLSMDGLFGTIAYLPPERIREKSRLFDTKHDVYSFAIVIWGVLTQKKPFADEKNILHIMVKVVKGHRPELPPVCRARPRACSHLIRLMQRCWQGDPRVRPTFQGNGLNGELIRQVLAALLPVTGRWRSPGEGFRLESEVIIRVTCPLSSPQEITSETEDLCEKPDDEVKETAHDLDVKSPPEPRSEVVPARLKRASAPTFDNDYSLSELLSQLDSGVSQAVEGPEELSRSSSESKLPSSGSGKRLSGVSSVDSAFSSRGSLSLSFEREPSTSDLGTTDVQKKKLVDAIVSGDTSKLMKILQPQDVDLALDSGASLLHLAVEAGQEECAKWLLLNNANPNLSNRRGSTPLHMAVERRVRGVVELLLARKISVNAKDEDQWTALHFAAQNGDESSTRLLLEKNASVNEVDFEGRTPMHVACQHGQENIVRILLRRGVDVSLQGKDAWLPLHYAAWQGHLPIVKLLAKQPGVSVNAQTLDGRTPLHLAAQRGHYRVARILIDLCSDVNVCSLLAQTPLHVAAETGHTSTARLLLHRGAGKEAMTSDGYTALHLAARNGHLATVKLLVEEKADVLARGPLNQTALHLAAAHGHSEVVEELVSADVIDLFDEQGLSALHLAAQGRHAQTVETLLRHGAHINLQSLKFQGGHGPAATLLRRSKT
The note with it: RIPK4, 1 μM; read-out: % control. An outline of the steps: as §1

In a further experiment the target is CAMK1G (Homo sapiens, UniProt Q96NX5). Particulars: read-out: % control. An outline of the steps:
as §1

Another experiment addresses T4, STK33 (Homo sapiens, UniProt Q9BYT3).
T4 construct: purchased KinomeScan® (panel service)
Particulars: STK33, 1 μM; read-out: % control. An outline of the steps:
as §1

The target in a further experiment is T5, MAP4K2 (Homo sapiens, UniProt Q12851).
T5 sequence (Q12851 1-820): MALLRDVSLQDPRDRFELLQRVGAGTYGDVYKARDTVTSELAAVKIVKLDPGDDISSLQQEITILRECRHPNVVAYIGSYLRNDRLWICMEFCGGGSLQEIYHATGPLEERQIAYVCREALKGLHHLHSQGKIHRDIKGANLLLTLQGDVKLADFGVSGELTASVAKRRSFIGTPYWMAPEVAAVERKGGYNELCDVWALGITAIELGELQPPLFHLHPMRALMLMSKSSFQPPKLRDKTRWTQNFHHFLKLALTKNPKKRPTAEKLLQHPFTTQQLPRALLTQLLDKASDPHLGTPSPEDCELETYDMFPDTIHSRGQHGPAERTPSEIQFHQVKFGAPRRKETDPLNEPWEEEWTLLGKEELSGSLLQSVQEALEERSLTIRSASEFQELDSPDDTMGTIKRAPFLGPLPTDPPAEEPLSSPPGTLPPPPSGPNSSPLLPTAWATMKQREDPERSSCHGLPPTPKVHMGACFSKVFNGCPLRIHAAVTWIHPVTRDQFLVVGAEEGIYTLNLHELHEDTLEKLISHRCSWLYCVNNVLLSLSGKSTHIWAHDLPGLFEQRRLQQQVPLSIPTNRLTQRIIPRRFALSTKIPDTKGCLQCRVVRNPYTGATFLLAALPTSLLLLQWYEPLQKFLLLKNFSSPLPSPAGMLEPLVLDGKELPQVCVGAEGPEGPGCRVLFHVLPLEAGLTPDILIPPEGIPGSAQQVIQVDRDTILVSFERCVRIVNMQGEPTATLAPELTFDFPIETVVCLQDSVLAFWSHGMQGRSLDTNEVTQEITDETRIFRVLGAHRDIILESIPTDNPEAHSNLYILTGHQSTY
Particulars: MAP4K2, 1 μM; read-out: % control. An outline of the steps:
as §1

CAMK1G, sequence (Q96NX5 whole entry): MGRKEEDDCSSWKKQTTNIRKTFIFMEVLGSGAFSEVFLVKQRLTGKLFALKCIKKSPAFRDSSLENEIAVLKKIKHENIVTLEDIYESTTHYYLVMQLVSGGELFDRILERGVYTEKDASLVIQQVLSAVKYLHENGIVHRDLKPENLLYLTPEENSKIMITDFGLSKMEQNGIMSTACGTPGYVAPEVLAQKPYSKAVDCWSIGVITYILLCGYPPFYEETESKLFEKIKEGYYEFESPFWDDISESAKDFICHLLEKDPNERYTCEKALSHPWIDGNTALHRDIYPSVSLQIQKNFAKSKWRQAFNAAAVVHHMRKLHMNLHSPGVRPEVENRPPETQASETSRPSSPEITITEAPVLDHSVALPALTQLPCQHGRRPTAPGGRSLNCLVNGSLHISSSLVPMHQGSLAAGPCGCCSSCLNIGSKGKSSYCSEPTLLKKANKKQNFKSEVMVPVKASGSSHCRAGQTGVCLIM
T4 sequence (Q9BYT3 whole entry): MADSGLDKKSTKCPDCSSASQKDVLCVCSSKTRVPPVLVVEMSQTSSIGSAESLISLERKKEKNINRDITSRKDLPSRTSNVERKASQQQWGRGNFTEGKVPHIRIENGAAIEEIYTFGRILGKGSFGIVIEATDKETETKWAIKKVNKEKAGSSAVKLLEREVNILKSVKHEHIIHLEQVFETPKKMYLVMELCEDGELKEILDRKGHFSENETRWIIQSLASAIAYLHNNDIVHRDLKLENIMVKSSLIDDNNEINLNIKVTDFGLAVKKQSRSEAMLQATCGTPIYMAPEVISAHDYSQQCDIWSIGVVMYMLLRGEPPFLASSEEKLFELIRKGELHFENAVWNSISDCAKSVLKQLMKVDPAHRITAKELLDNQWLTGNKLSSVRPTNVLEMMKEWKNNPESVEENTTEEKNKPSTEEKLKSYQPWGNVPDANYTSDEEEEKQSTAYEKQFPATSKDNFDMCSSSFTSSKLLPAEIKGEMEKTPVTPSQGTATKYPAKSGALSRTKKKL
T1 sequence (P53779 whole entry): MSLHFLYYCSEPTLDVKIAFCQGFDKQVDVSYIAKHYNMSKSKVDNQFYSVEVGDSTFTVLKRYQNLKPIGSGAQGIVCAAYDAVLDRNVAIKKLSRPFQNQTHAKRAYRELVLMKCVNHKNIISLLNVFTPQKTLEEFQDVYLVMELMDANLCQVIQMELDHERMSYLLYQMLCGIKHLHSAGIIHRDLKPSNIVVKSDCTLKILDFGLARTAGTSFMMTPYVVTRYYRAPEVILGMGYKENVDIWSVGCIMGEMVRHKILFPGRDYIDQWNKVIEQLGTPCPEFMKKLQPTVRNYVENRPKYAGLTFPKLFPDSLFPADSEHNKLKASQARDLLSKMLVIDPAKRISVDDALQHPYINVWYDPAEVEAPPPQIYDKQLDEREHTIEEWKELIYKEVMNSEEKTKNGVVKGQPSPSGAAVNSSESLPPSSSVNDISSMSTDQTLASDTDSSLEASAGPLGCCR

As for `CNc1c(-c2ccc(C(=O)N3CCC(N4CCOCC4)CC3)cc2)cnc2[nH]cc(Cl)c12` [Compound 96, (4-(3-chloro-4-(methylamino)-1H-pyrrolo[2,3-b]pyridin-5-yl)phenyl)(4-morpholinopiperidin-1-yl)methanone], the remaining binding at 1 µM at JNK3 stood at 0.35%; at TSSK3, 45%; on RIPK4, 7.8%; at CAMK1G, 98%; at STK33 it was 100%; at MAP4K2 it was 1.1%.

`O=C(c1ccc(-c2cnc3[nH]cc(Cl)c3c2NC2CCCC2)cc1)N1CCC(N2CCOCC2)CC1` [Compound 101, (4-(3-chloro-4-(cyclopentylamino)-1H-pyrrolo[2,3-b]pyridin-5-yl)phenyl)(4-morpholinopiperidin-1-yl)methanone]: the remaining binding at 1 µM at JNK3 came to 7.6%; at TSSK3, 98%; on RIPK4, 100%; on CAMK1G, 93%; at STK33, 100%; on MAP4K2, 20%.

For the compound `CNc1c(-c2cnn([C@H]3CCN(C(C)=O)C[C@@H]3F)c2)cnc2[nH]cc(Cl)c12` [Compound 77, 1-((3S,4S)-4-(4-(3-chloro-4-(methylamino)-1H-pyrrolo[2,3-b]pyridin-5-yl)-1H-pyrazol-1-yl)-3-fluoropiperidin-1-yl)ethan-1-one], the remaining binding at 1 µM at JNK3 is 1.9%; at TSSK3, 65%; at RIPK4, 1.3%; at CAMK1G it was 100%; on STK33 it was 100%; on MAP4K2 it was 20%.
